From patent publication US10488417B2, “Compounds for use as imaging agents” (United Arab Emirates University, priority 2014, dated 2019) come the findings set out here.

The assay addresses T1, monomeric α-synuclein (Homo sapiens, UniProt P37840).
T1 construct: made in house
Put plainly: NMR titration into monomeric α-synuclein. Format: binding. The following applies: stoichiometries of up to 6:1 compound: α-synuclein, 100 μM α-synuclein. As for the experimental part: For NMR studies, recombinant ^15N-labeled α-synuclein was expressed and purified as previously described, resuspended in PBS buffer at pH 6.6. Two-dimensional ^1H-^15N HQSC spectra were acquired for α-synuclein at 100 μM concentration in the absence of Gn Rb1 and in the presence of increasing Gn Rb1: α-synuclein stoichiometries of 1:1, 4:1 and 6:1. Data were collected on a Bruker 900 MHz spectrometer equipped with a cold probe.

On to `CC(C)=CCC[C@](C)(O[C@@H]1O[C@H](CO[C@@H]2O[C@H](CO)[C@@H](O)[C@H](O)[C@H]2O)[C@@H](O)[C@H](O)[C@H]1O)[C@H]1CC[C@]2(C)[C@@H]1[C@H](O)C[C@@H]1[C@@]3(C)CC[C@H](O[C@@H]4O[C@H](CO)[C@@H](O)[C@H](O)[C@H]4O[C@@H]4O[C@H](CO)[C@@H](O)[C@H](O)[C@H]4O)C(C)(C)[C@@H]3CC[C@]12C` [Gn Rb1, ginsenoside Rb1], for which the “interaction with monomeric α-synuclein (two-dimensional NMR)” value was “does not interact significantly with monomeric α-synuclein”.
